This is an account of results in article PMC5428354, “Screening of a natural compound library identifies emodin, a natural compound from Rheum palmatum Linn that inhibits DPP4” (PeerJ, 2017).

The target of one data set is T1, DPP9 (Homo sapiens, UniProt Q86TI2).
T1 construct: purchased BPS Bioscience 800209
The data set is described as follows: DPP9 activity assay (BPS Bioscience kit). The format is biochemical. Particulars: tested at 100 µM. Here is the method:
A DPP9 assay kit was purchased from BPS Bioscience (Cat# 800209), and the assay protocol was followed to test for inhibitory activity against DPP9. Briefly, DPP substrate 1 was diluted to make a 100 µM stock solution, and DPP9 protein was diluted in DPP assay buffer to 2 ng/µl (20 ng/reaction). For the tested compounds, 10 µl of diluted DPP9 protein, 5 µl of diluted DPP substrate 1, 84 µl of DPP assay buffer and 1 µl of inhibitor were added into the assay system for a total volume of 100 µl. […]

The target of data set [1] is T2, DPP4 (Homo sapiens, UniProt P27487). The data set is described as follows: DPP4 activity assay (DPP4 inhibitor screening assay kit, Cayman).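 On all read-outs here: fluorescence read at excitation 360 nm and emission 460 nm after the enzyme reaction ran 30 min at 37 °C in a 96-well plate.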 The format is biochemical. The arrangement: purchased Cayman Chemical, Ann Arbor, MI, USA. To be noted: for remaining activity at 10 µM: control mean 100.0.
Target sequence in this assay (P27487 whole entry): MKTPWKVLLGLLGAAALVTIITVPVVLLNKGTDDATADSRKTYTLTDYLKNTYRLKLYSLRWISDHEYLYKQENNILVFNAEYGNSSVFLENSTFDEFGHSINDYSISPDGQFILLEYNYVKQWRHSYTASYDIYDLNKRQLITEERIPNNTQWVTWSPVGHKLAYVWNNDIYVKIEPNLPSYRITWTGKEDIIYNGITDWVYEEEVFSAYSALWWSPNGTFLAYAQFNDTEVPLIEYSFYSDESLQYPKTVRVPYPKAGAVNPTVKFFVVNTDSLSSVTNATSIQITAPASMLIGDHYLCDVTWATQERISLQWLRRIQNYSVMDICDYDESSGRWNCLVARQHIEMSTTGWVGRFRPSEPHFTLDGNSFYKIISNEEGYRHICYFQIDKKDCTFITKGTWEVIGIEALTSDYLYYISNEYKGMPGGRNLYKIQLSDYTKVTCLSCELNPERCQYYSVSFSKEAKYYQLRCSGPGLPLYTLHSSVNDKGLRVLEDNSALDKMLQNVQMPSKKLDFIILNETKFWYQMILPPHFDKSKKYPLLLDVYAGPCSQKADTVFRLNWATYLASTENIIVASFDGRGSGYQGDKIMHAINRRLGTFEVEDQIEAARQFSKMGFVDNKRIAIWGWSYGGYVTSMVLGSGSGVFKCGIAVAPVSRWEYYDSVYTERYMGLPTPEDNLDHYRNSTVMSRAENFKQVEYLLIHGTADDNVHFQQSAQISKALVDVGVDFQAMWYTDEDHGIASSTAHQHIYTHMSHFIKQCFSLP
In the next data set the test system is F344/N rats. More on the design: method as in National Toxicology Program, 2001; Wang & Chung, 1997. Particulars: male F344/N rats, 280–2,500 ppm; ref National Toxicology Program, 2001; Wang & Chung, 1997; cited from earlier work.
The next data set relates to GLP-1. The data set is described as follows: Plasma GLP-1 activity after oral emodin. The data set is classed as in vivo, mice. To be noted: 30 mg/kg P.O., C57BL/6 (head), individual animals. More on the design: unit not given here.
Data set [2] addresses T2, DPP4. The data set is described as follows: Dialysis assay followed by DPP4 assay. The format is biochemical. Here is the method:
Dialysis assay was performed using Slide-A-Lyzer Dialysis Cassettes (Pierce, Shanghai, China). Briefly, 2 mg DPP4 protein was incubated with emodin or dimethyl sulfoxide (DMSO) in 4 ml diluted assay buffer for 10 min at 37 °C. Mixed reaction solution was loaded onto a dialysis cartridge using a syringe and incubated at 4 °C for 8 h. The samples were removed from Dialysis Cassettes by syringes for DPP4 assay.
Target sequence in this assay (P27487 whole entry, species assumed): as the sequence (P27487 whole entry) above

Values joined by “and” are separate entries in the source; they are usually repeats but may differ in a detail not shown here. Equal entries are not always repeated. Where two headings read alike, the source gives them in different places.

T1 sequence (Q86TI2 whole entry): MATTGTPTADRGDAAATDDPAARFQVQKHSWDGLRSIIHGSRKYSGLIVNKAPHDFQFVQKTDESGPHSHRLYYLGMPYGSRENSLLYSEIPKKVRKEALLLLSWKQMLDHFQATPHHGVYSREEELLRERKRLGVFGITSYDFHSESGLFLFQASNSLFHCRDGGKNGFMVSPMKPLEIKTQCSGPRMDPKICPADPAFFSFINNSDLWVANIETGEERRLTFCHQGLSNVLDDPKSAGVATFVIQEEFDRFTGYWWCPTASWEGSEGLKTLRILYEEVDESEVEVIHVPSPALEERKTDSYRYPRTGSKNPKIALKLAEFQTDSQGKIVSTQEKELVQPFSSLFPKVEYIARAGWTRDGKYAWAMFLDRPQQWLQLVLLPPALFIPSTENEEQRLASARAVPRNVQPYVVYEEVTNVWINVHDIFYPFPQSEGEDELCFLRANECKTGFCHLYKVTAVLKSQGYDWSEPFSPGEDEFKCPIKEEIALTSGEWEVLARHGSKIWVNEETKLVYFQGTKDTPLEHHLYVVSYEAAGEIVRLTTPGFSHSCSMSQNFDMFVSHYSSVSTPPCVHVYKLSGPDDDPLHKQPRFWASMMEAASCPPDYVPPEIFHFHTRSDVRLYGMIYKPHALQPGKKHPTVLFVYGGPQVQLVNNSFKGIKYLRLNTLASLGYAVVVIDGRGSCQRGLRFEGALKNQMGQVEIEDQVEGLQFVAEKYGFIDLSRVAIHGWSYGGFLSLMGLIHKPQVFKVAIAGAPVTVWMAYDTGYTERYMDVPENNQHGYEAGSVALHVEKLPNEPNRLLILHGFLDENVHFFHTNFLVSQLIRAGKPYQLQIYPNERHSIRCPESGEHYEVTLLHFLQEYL

The term inhibition denotes the relative decrease from the control value, in per cent. As usually defined, the Ki is a dissociation constant, usually derived from enzyme kinetics or from competition with a known ligand. In general, IC50 refers to the concentration at which inhibition is half-maximal. Turning to `Cc1cc(O)c2c(c1)C(=O)c1cc(O)cc(O)c1C2=O` [Emodin], the “activity against DPP9” value on DPP9 is “without inhibiting”. Besides, on DPP4 [1] (10 µM, library screen), the inhibition at 10 µM is over 50%. Also, the remaining activity at 10 µM at DPP4 [1] (0.5 h, 10 µM, Figure 1A raw data, read-out: DPP4 activity in library screen, Exp 1) stood at 22%; on DPP4 [1] (0.5 h, 10 µM, Figure 1A raw data, read-out: DPP4 activity in library screen, Exp 2), 22.6%; on DPP4 [1] (0.5 h, 10 µM, Figure 1A raw data, read-out: DPP4 activity in library screen, Exp 3), 41.2%; on DPP4 [1] (0.5 h, 10 µM, mean of Exp 1-3, read-out: DPP4 activity in library screen, Mean) it was 28.6%. Further, the remaining activity at 0.39 µM on DPP4 [1] (0.5 h, Emodin 0.39 μM, Exp 1-4) was 100%. Besides, the remaining activity at 0.78125 µM on DPP4 [1] (0.5 h, Emodin 0.78125 μM, Exp 1-4) was determined as 104%. Besides, the remaining activity at 1.5625 µM at DPP4 [1] (0.5 h, Emodin 1.5625 μM, Exp 1-4) amounted to 97.8%. For the same compound, on DPP4 [1] (0.5 h, Emodin 3.125 μM, Exp 1-4), the remaining activity at 3.125 µM stood at 83.5%. Also, the remaining activity at 12.5 µM at DPP4 [1] (0.5 h, Emodin 12.5 μM, Exp 1-4) worked out at 37%. Also, on DPP4 [1] (0.5 h, Emodin 25 μM, Exp 1-4), the remaining activity at 25 µM was 25.1%. On DPP4 [1] (0.5 h, Emodin 100 μM, Exp 1-4), the remaining activity at 100 µM was 3.77%. At DPP4 [1] (DPP4, means ± SE), this compound registered a Ki of 0.85 ± 0.06 µM. In addition, on DPP4 [1] (in vitro, means ± SE, read-out: IC50 of DPP4 Inhibition), the IC50 is 5.7 µM and 5.76 µM. In addition, in the data set on F344/N rats, the carcinogenic activity entry is “no evidence of carcinogenic activity”. For the same compound, the GLP-1 in the data set on GLP-1 (0 hours (baseline)) is 2.4022 and 3.1852 and 3.2635 and 2.9242 and 1.0711; with GLP-1 (1 hours), 2.5849 and 2.8981 and 2.4805 and 2.9503 and 0.9928; in the data set with GLP-1 (2 hours), 2.6371 and 2.5849 and 2.9242 and 1.3843 and 2.0629; in the data set on GLP-1 (4 hours), 2.6893 and 3.1069 and 3.0808 and 3.2113 and 0.4708; with GLP-1 (8 hours), 1.9063 and 3.394 and 3.3157 and 2.0107 and 0.2881. Moreover, the “DPP4 activity in dialysis assay” value at DPP4 [2] (8 hr of dialysis, triplicate) is 90 % of DMSO and 88 % of DMSO and 85 % of DMSO. Further, the “DPP4 activity in dialysis assay, raw signal” value at DPP4 [2] (8 hr of dialysis, triplicate) was 4500000 RLU and 4400000 RLU and 4250000 RLU. The “manner of binding to the DPP4 active site” value at DPP4 [2] (dialysis 8 h at 4 °C) is “reversible manner”.
